{
  "source": "PubChem BioAssay (NCI)",
  "assay_in_all_cases": "DTP human tumour cell line panel, 48 h",
  "key": {"[1]": {"system": "786-0 renal"}, "[2]": {"system": "A498 renal"}, "[3]": {"system": "CAKI-1 renal"}, "[4]": {"system": "HS 578T breast"}, "[5]": {"system": "LOX IMVI melanoma"}, "[6]": {"system": "NCI-H226 lung"}, "[7]": {"system": "OVCAR-5 ovarian"}, "[8]": {"system": "RPMI-8226 leukemia"}},
  "note": "Where “and” joins values, the source holds several entries; their conditions need not be identical. Equal values may be shown once.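 Exposure lasted 48 hours, with cells grown in 96-well plates and compounds tested at five concentrations. GI50 = concentration required for 50% inhibition of growth. At the TGI there is no net growth.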",
  "data": [
    {"smiles": "C=CCSSc1ncnc2c1ncn2C1OC(CO)C(O)C1O", "note": "(stereo not given)", "values": [
      {"measurement": "GI50", "setting": "[1]", "value": 2350, "unit": "nM"},
      {"measurement": "TGI", "setting": "[1]", "value": "> 86900", "unit": "nM"},
      {"measurement": "GI50", "setting": "[2]", "value": 39300, "unit": "nM"},
      {"measurement": "TGI", "setting": "[2]", "value": "> 100000", "unit": "nM"},
      {"measurement": "GI50", "setting": "[3]", "value": 799, "unit": "nM"},
      {"measurement": "TGI", "setting": "[3]", "value": "> 68800", "unit": "nM"},
      {"measurement": "GI50", "setting": "[4]", "value": 14500, "unit": "nM"},
      {"measurement": "TGI", "setting": "[4]", "value": "> 93500", "unit": "nM"},
      {"measurement": "GI50", "setting": "[5]", "value": 370, "unit": "nM"},
      {"measurement": "TGI", "setting": "[5]", "value": "> 78600", "unit": "nM"},
      {"measurement": "GI50", "setting": "[6]", "value": 4140, "unit": "nM"},
      {"measurement": "TGI", "setting": "[6]", "value": "> 100000", "unit": "nM"},
      {"measurement": "GI50", "setting": "[7]", "value": 4290, "unit": "nM"},
      {"measurement": "TGI", "setting": "[7]", "value": "> 100000", "unit": "nM"},
      {"measurement": "GI50", "setting": "[8]", "value": 1150, "unit": "nM"},
      {"measurement": "TGI", "setting": "[8]", "value": 6470, "unit": "nM"}
    ]},
    {"smiles": "C/C=C/C1=CN2C(=O)c3cc(OC4OC(C)C(NC)C(C)(O)C4O)c(C)c(O)c3N=C[C@@H]2C1", "note": "(stereo not given in full)", "values": [
      {"measurement": "GI50", "setting": "[1]", "value": 65, "unit": "nM"},
      {"measurement": "GI50", "setting": "[2]", "value": "28.2 nM and < 10 nM"},
      {"measurement": "TGI", "setting": "[2]", "value": "88.7 nM and < 10 nM"},
      {"measurement": "GI50", "setting": "[3]", "value": "27.9 nM and < 10 nM"},
      {"measurement": "GI50", "setting": "[5]", "value": "61.9 nM and < 10 nM"},
      {"measurement": "TGI", "setting": "[5]", "value": 4060, "unit": "nM"},
      {"measurement": "GI50", "setting": "[6]", "value": 124, "unit": "nM"},
      {"measurement": "TGI", "setting": "[7]", "value": 2920, "unit": "nM"},
      {"measurement": "GI50", "setting": "[8]", "value": "45.7 nM and < 10 nM"}
    ]},
    {"smiles": "Cc1nc2sc(C(=O)Nc3cccc(Br)c3)c(N)c2cc1C(O)c1ccccc1", "note": "(stereo not given)", "values": [
      {"measurement": "GI50", "setting": "[1]", "value": 1600, "unit": "nM"},
      {"measurement": "TGI", "setting": "[1]", "value": 18400, "unit": "nM"},
      {"measurement": "GI50", "setting": "[2]", "value": 219, "unit": "nM"},
      {"measurement": "TGI", "setting": "[2]", "value": 746, "unit": "nM"},
      {"measurement": "GI50", "setting": "[3]", "value": 632, "unit": "nM"},
      {"measurement": "TGI", "setting": "[3]", "value": 15600, "unit": "nM"},
      {"measurement": "GI50", "setting": "[4]", "value": 424, "unit": "nM"},
      {"measurement": "TGI", "setting": "[4]", "value": 9210, "unit": "nM"},
      {"measurement": "GI50", "setting": "[5]", "value": 731, "unit": "nM"},
      {"measurement": "TGI", "setting": "[5]", "value": 22900, "unit": "nM"},
      {"measurement": "GI50", "setting": "[6]", "value": 2000, "unit": "nM"},
      {"measurement": "TGI", "setting": "[6]", "value": 24300, "unit": "nM"},
      {"measurement": "GI50", "setting": "[7]", "value": 3090, "unit": "nM"},
      {"measurement": "TGI", "setting": "[7]", "value": 20100, "unit": "nM"},
      {"measurement": "GI50", "setting": "[8]", "value": 511, "unit": "nM"},
      {"measurement": "TGI", "setting": "[8]", "value": "> 23100", "unit": "nM"}
    ]},
    {"smiles": "C/C(=C\\c1ccn(-c2ccc(N)cc2F)n1)[C@@H]1C[C@@H]2O[C@]2(C)CCC[C@H](C)[C@H](O)[C@@H](C)C(=O)C(C)(C)[C@@H](O)CC(=O)O1", "values": [
      {"measurement": "GI50", "setting": "[1]", "value": 99.2, "unit": "nM"},
      {"measurement": "TGI", "setting": "[1]", "value": "> 50000", "unit": "nM"},
      {"measurement": "GI50", "setting": "[3]", "value": 123, "unit": "nM"},
      {"measurement": "TGI", "setting": "[3]", "value": "> 50000", "unit": "nM"},
      {"measurement": "GI50", "setting": "[4]", "value": 60.6, "unit": "nM"},
      {"measurement": "TGI", "setting": "[4]", "value": "> 16600", "unit": "nM"},
      {"measurement": "GI50", "setting": "[5]", "value": 24.1, "unit": "nM"},
      {"measurement": "TGI", "setting": "[5]", "value": "> 50000", "unit": "nM"},
      {"measurement": "GI50", "setting": "[6]", "value": 5450, "unit": "nM"},
      {"measurement": "TGI", "setting": "[6]", "value": "> 50000", "unit": "nM"},
      {"measurement": "GI50", "setting": "[7]", "value": 116, "unit": "nM"},
      {"measurement": "TGI", "setting": "[7]", "value": "> 50000", "unit": "nM"},
      {"measurement": "GI50", "setting": "[8]", "value": 20.4, "unit": "nM"},
      {"measurement": "TGI", "setting": "[8]", "value": "> 50000", "unit": "nM"}
    ]}
  ]
}
